From ChEMBL document CHEMBL3217610, “SAR investigations on a novel class of gamma-secretase modulators based on a unique scaffold” (Medchemcomm, 2013)
pIC50: −log10 of the molar value.

Tests used:
[1] = biological target: T1, Gamma-secretase (Homo sapiens) (UniProt Q96BI3+Q9NZ42+Q8WW43+P49768+Q92542+P49810); assay: Selectivity ratio of IC50 for modulation of gamma-secretase (unknown origin) assessed as inhibition of amyloid beta 40 production to IC50 for modulation of gamma-secretase (unknown origin) assessed as inhibition of amyloid beta 42 production; format: protein-complex assay
[2] = biological target: T1, Gamma-secretase (Homo sapiens); assay: Modulation of gamma-secretase (unknown origin) assessed as inhibition of amyloid beta 40 production at 20 uM relative to control; format: protein-complex assay
Gamma-secretase [3] = assay: Modulation of gamma-secretase (unknown origin) assessed as inhibition of amyloid beta 42 production; format: protein-complex assay, Homo sapiens
Gamma-secretase [4] = assay: Modulation of gamma-secretase (unknown origin) assessed as inhibition of amyloid beta 40 production; format: protein-complex assay, Homo sapiens
[5] = biological target: T1, Gamma-secretase (Homo sapiens); assay: Modulation of gamma-secretase (unknown origin) assessed as inhibition of amyloid beta 40 production at 4 uM relative to control; format: protein-complex assay
Gamma-secretase [6] = assay: Modulation of gamma-secretase (unknown origin) expressed in CHO cells assessed as inhibition of amyloid beta 40 production; format: cell-based, Homo sapiens
Gamma-secretase [7] = assay: Modulation of gamma-secretase (unknown origin) expressed in CHO cells assessed as inhibition of amyloid beta 42 production; format: cell-based, Homo sapiens

Ratio IC50 [1] | inhibition [2] [%] | inhibition [5] [%] | SMILES | pIC50 (Gamma-secretase [3]) | pIC50 (Gamma-secretase [4]) | pIC50 (Gamma-secretase [6]) | pIC50 (Gamma-secretase [7])
> 35 | 32 | – | CC(=O)O[C@@H]([C@@H]1C[C@@H](C)[C@H]2[C@H](O1)[C@H](O)[C@@]1(C)[C@@H]3CC[C@H]4C(C)(C)[C@@H](OC(=O)NCc5ccccn5)CC[C@@]45C[C@@]35CC[C@]21C)C(C)(C)O | 6.25 | – | – | –
> 33 | 41 | – | CC(=O)O[C@@H]([C@@H]1C[C@@H](C)[C@H]2[C@H](O1)[C@H](O)[C@@]1(C)[C@@H]3CC[C@H]4C(C)(C)[C@@H](OC(=O)C5(C)COC5)CC[C@@]45C[C@@]35CC[C@]21C)C(C)(C)O | 6.23 | – | – | –
24 | – | – | CC(=O)O[C@@H]([C@@H]1C[C@@H](C)[C@H]2[C@H](O1)[C@H](O)[C@@]1(C)[C@@H]3CC[C@H]4C(C)(C)[C@@H](OC(=O)C5CNC5)CC[C@@]45C[C@@]35CC[C@]21C)C(C)(C)O | 7.26 | 5.89 | – | –
– | – | – | CC(=O)O[C@@H]([C@@H]1C[C@@H](C)[C@H]2[C@H](O1)[C@H](O)[C@@]1(C)[C@@H]3CC[C@H]4C(C)(C)[C@@H](O[C@@H]5OC[C@@H](O)[C@H](O)[C@H]5O)CC[C@@]45C[C@@]35CC[C@]21C)C(C)(C)O | 7.22 | 6.00 | – | –
20 | – | – | CC(=O)O[C@@H]([C@@H]1C[C@@H](C)[C@H]2[C@H](O1)[C@H](O)[C@@]1(C)[C@@H]3CC[C@H]4C(C)(C)[C@@H](OC(=O)[C@@H]5CCCN5)CC[C@@]45C[C@@]35CC[C@]21C)C(C)(C)O | 6.64 | 5.34 | – | –
– | – | – | CC(=O)O[C@@H]([C@@H]1C[C@@H](C)[C@H]2[C@H](O1)[C@H](O)[C@@]1(C)[C@@H]3CC[C@H]4C(C)(C)[C@@H](OC(=O)c5ccncc5)CC[C@@]45C[C@@]35CC[C@]21C)C(C)(C)O | 6.00 | – | – | –
> 86 | 31 | – | CC(=O)O[C@@H]([C@@H]1C[C@@H](C)[C@H]2[C@H](O1)[C@H](O)[C@@]1(C)[C@@H]3CC[C@H]4C(C)(C)[C@@H](OC(=O)NCCN5CCOCC5)CC[C@@]45C[C@@]35CC[C@]21C)C(C)(C)O | 6.64 | – | – | –
> 8 | 37 | – | CC(=O)O[C@@H]([C@@H]1C[C@@H](C)[C@H]2[C@H](O1)[C@H](O)[C@@]1(C)[C@@H]3CC[C@H]4C(C)(C)[C@@H](OC(=O)NCC(=O)O)CC[C@@]45C[C@@]35CC[C@]21C)C(C)(C)O | 5.60 | – | – | –
33 | – | – | CC(=O)O[C@@H]([C@@H]1C[C@@H](C)[C@H]2[C@H](O1)[C@H](O)[C@@]1(C)[C@@H]3CC[C@H]4C(C)(C)[C@@H](OC(=O)NCCN)CC[C@@]45C[C@@]35CC[C@]21C)C(C)(C)O | 7.04 | 5.52 | – | –
> 11 | – | 23 | CC(=O)O[C@@H]([C@@H]1C[C@@H](C)[C@H]2[C@H](O1)[C@H](O)[C@@]1(C)[C@@H]3CC[C@H]4C(C)(C)[C@@H](OC(=O)NCCN(C)C)CC[C@@]45C[C@@]35CC[C@]21C)C(C)(C)O | 6.44 | – | – | –
– | – | – | CC(=O)O[C@@H]([C@@H]1C[C@@H](C)[C@H]2[C@H](O1)[C@H](O)[C@@]1(C)[C@@H]3CC[C@H]4C(C)(C)[C@@H](OC(=O)C5CCN5)CC[C@@]45C[C@@]35CC[C@]21C)C(C)(C)O (mixture of isomers) | 6.66 | – | – | –
– | – | – | CC(=O)O[C@@H]([C@@H]1C[C@@H](C)[C@H]2[C@H](O1)[C@H](O)[C@@]1(C)[C@@H]3CC[C@H]4C(C)(C)[C@@H](O)CC[C@@]45C[C@@]35CC[C@]21C)C(C)(C)O | 6.22 | 4.85 | – | –
– | – | – | CC(=O)O[C@@H]([C@@H]1C[C@@H](C)C2=C(O1)[C@H](O)[C@@]1(C)[C@@H]3CC[C@H]4C(C)(C)[C@@H](O[C@@H]5OC[C@@H](O)[C@H](O)[C@H]5O)CC[C@@]45C[C@@]35CC[C@]21C)C(C)(C)O | 7.00 | 5.57 | 5.20 | 7.00
– | – | – | CC(=O)O[C@@H]([C@@H]1C[C@@H](C)[C@H]2[C@H](O1)C(=O)[C@@]1(C)[C@@H]3CC[C@H]4C(C)(C)[C@@H](O[C@@H]5OC[C@@H](O)[C@H](O)[C@H]5O)CC[C@@]45C[C@@]35CC[C@]21C)C(C)(C)O | 6.22 | 5.01 | – | –
– | – | – | CC(=O)OC(C)(C)[C@H]1O[C@@]23O[C@H]1C[C@@H](C)C2[C@@]1(C)CC[C@@]24C[C@@]25CC[C@H](O[C@@H]2OC[C@@H](O)[C@H](O)[C@H]2O)C(C)(C)[C@@H]5CC[C@H]4[C@]1(C)[C@H]3O (stereo partly specified) | 5.52 | – | – | –
> 42 | 26 | – | CC(=O)O[C@@H]([C@@H]1C[C@@H](C)[C@H]2[C@H](O1)[C@H](O)[C@@]1(C)[C@@H]3CC[C@H]4C(C)(C)[C@@H](OC(=O)NC5CCC5)CC[C@@]45C[C@@]35CC[C@]21C)C(C)(C)O | 6.33 | – | – | –
43 | – | – | CC(=O)O[C@@H]([C@@H]1C[C@@H](C)[C@H]2[C@H](O1)[C@H](O)[C@@]1(C)[C@@H]3CC[C@H]4C(C)(C)[C@@H](OC(=O)N5CCC5)CC[C@@]45C[C@@]35CC[C@]21C)C(C)(C)O | 6.47 | 4.83 | – | –
– | – | – | C[C@@H]1C[C@@H]([C@H](O)C(C)(C)O)O[C@H]2[C@H]1[C@@]1(C)CC[C@@]34C[C@@]35CC[C@H](O[C@@H]3OC[C@@H](O)[C@H](O)[C@H]3O)C(C)(C)[C@@H]5CC[C@H]4[C@]1(C)[C@H]2O | 5.51 | – | – | –
29 | – | – | CC(=O)O[C@@H]([C@@H]1C[C@@H](C)[C@H]2[C@H](O1)[C@H](O)[C@@]1(C)[C@@H]3CC[C@H]4C(C)(C)[C@@H](OC(=O)NC5CN6CCC5CC6)CC[C@@]45C[C@@]35CC[C@]21C)C(C)(C)O (stereo partly specified) | 7.08 | 5.62 | – | –
– | – | – | CC(=O)O[C@@H]([C@@H]1C[C@@H](C)[C@H]2[C@H](O1)[C@H](O)[C@@]1(C)[C@@H]3CC[C@H]4C(C)(C)[C@@H](OC(=O)CN)CC[C@@]45C[C@@]35CC[C@]21C)C(C)(C)O | 7.02 | – | – | –
> 44 | 40 | – | CC(=O)O[C@@H]([C@@H]1C[C@@H](C)[C@H]2[C@H](O1)[C@H](O)[C@@]1(C)[C@@H]3CC[C@H]4C(C)(C)[C@@H](OC(=O)NC5COC5)CC[C@@]45C[C@@]35CC[C@]21C)C(C)(C)O | 6.35 | – | – | –
62 | – | – | CC(=O)O[C@@H]([C@@H]1C[C@@H](C)[C@H]2[C@H](O1)[C@H](O)[C@@]1(C)[C@@H]3CC[C@H]4C(C)(C)[C@@H](OC(=O)N5CCOCC5)CC[C@@]45C[C@@]35CC[C@]21C)C(C)(C)O | 6.66 | 4.87 | – | –

SMILES | Ratio IC50 [1] | inhibition [2] [%] | inhibition [5] [%] | pIC50 (Gamma-secretase [3]) | pIC50 (Gamma-secretase [4]) | pIC50 (Gamma-secretase [6]) | pIC50 (Gamma-secretase [7])
CC(=O)O[C@H]1CC[C@]23C[C@]24CC[C@]2(C)[C@@H]5[C@H](O[C@H]([C@H](OC(C)=O)C(C)(C)O)C[C@H]5C)[C@H](O)[C@@]2(C)[C@@H]4CC[C@H]3C1(C)C | 16 | – | – | 6.12 | 4.92 | – | –
CC(=O)O[C@@H]([C@@H]1C[C@@H](C)[C@H]2[C@H](O1)[C@H](O)[C@@]1(C)[C@@H]3CC[C@H]4C(C)(C)[C@@H](OC(=O)NC5CNC5)CC[C@@]45C[C@@]35CC[C@]21C)C(C)(C)O | 7 | – | – | 7.33 | 6.48 | – | –
CC(=O)O[C@@H]([C@@H]1C[C@@H](C)[C@H]2[C@H](O1)[C@H](O)[C@@]1(C)[C@@H]3CC[C@H]4C(C)(C)[C@@H](OC(=O)CN(C)C)CC[C@@]45C[C@@]35CC[C@]21C)C(C)(C)O | 15 | – | – | 6.24 | 5.08 | – | –
CC(=O)O[C@@H]([C@@H]1C[C@@H](C)[C@H]2[C@H](O1)[C@H](O)[C@@]1(C)[C@@H]3CC[C@H]4C(C)(C)[C@@H](OC(=O)Cc5ccccn5)CC[C@@]45C[C@@]35CC[C@]21C)C(C)(C)O | 9 | – | – | 6.11 | 5.14 | – | –
CC(=O)O[C@@H]([C@@H]1C[C@@H](C)[C@H]2[C@H](O1)[C@H](O)[C@@]1(C)[C@@H]3CC[C@H]4C(C)(C)[C@@H](OC(=O)c5ccccn5)CC[C@@]45C[C@@]35CC[C@]21C)C(C)(C)O | 25 | – | – | 6.28 | 4.89 | – | –
CC(=O)O[C@@H]([C@@H]1C[C@@H](C)[C@H]2[C@H](O1)[C@H](O)[C@@]1(C)[C@@H]3CC[C@H]4C(C)(C)[C@@H](OC(=O)c5cccnc5)CC[C@@]45C[C@@]35CC[C@]21C)C(C)(C)O | 54 | – | – | 6.59 | 4.85 | – | –
CC(=O)O[C@@H]([C@@H]1C[C@@H](C)[C@H]2[C@H](O1)[C@H](O)[C@@]1(C)[C@@H]3CC[C@H]4C(C)(C)[C@@H](OC(=O)C5CCCO5)CC[C@@]45C[C@@]35CC[C@]21C)C(C)(C)O (mixture of isomers) | > 23 | 44 | – | 6.07 | – | – | –
CC(=O)O[C@@H]([C@@H]1C[C@@H](C)[C@H]2[C@H](O1)[C@H](O)[C@@]1(C)[C@@H]3CC[C@H]4C(C)(C)[C@@H](OC(=O)CCC(=O)O)CC[C@@]45C[C@@]35CC[C@]21C)C(C)(C)O | 11 | – | – | 5.80 | 4.74 | – | –
CC(=O)O[C@@H]([C@@H]1C[C@@H](C)[C@H]2[C@H](O1)[C@H](O)[C@@]1(C)[C@@H]3CC[C@H]4C(C)(C)[C@@H](OC(N)=O)CC[C@@]45C[C@@]35CC[C@]21C)C(C)(C)O | > 100 | 27 | – | 6.70 | – | – | –
